# Results taken from patent US12252481B2, “Anti-viral compounds” (Aligos Therapeutics, Inc., priority 2021, dated 2025).
# Where two headings read alike, the source gives them in different places.
# Assays:
# [1] = target: T1, human cathepsin L (Homo sapiens, UniProt P07711); experiment: Cathepsin L assay (Z-FR-AMC fluorescence); assay type: biochemical; details: 10 pM human cathepsin L, 30 mins preincubation, Z-FR-AMC 2 μM
# T1 construct: purchased R&D Systems
# Outline: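 IC50 values were taken from four-parameter fits of fluorescence read at 355/460 nm every 2 minutes for 30 minutes. The reaction started when 2 μM Z-FR-AMC was added. Before that, 10 pM human cathepsin L had been preincubated with inhibitor for 30 minutes.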
# [2] = test system: human beta-coronavirus OC43; experiment: OC43 coronavirus antiviral assay in HeLa cells (cytopathic effect, cell-titer-glo); assay type: cell-based; details: Betacoronavirus 1, OC43, HeLa, 144 h, 6 days at 33° C.
# [3] = target: T2, HRV3C (Human rhinovirus 14, UniProt P03303); experiment: biochemical; parameters: species or system HRV; details: HRV3C, 30 mins preincubation, SAMDI-MS
# T2 construct: 3CLpro and HRV3C was added using a Multidrop Combi
# [4] = test system: SARS-CoV-2-GHB-03021/2020; assay type: cell-based; details: read-out: VeroE6 + CP (EC50)
# [5] = test system: B.1.1.7 lineage SARS-CoV-2; experiment: microbe, parasite or virus in culture; assay type: cell-based; details: Severe acute respiratory syndrome coronavirus 2, 96 h, read-out: A549-dual_ACE2_TMPRSS2 (EC50)
# [6] = target: T3, SARS-Cov-2 3CLpro (Severe acute respiratory syndrome coronavirus 2, UniProt P0DTD1); experiment: biochemical; details: 3CLpro, 30 mins preincubation, SAMDI-MS; read-out: SARS-Cov-2 IC50 (class)
# T3 construct: 3CLpro and HRV3C was added using a Multidrop Combi
# T2 sequence (P03303 1538-1719): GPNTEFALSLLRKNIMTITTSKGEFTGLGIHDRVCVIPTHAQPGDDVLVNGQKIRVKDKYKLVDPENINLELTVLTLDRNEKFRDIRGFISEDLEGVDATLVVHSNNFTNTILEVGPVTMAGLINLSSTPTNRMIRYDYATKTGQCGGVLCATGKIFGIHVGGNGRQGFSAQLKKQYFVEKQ
# T1 sequence (P07711 114-333): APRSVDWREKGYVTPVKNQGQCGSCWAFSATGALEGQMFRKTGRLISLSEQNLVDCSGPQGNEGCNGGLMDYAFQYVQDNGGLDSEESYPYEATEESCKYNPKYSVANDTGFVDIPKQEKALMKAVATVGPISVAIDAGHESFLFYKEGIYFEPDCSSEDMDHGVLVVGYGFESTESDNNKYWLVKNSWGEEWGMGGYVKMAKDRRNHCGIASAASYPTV
SMILES,IC50 [1],EC50 ([2]; read-out: EC50 (bound)),IC50 ([3]; read-out: HRV IC50 (bound)),EC50 [4],"EC50 ([5]; […], numeric bounds given instead of class symbols)",IC50 [6],EC50 ([2]; read-out: EC50 (class)),EC50 [5],IC50 ([3]; read-out: HRV IC50 (class))
CC(C)(C)[C@@H](C(=O)N1C[C@H]2[C@@H]([C@H]1C(=O)N[C@H](C#N)C[C@@H]1CCNC1=O)[C@H]1C=C[C@@H]2C1)N1CCCC1=O [Compound 70],≥ 10000 nM,> 10000 nM,> 10000 nM,10000 to 50000 nM,> 10000 nM,2000 to 20000 nM,,,
"CC1(C(NC(=O)C(F)(F)F)C(=O)N2C[C@H]3[C@@H]([C@H]2C(=O)N[C@H](C#N)C[C@@H]2CCNC2=O)[C@H]2C=C[C@@H]3C2)CC1 (stereo partly drawn) [Example 24, (1R,2S,3S,6R,7S)—N-[(1S)-1-cyano-2-[(3S)-2-oxopyrrolidin-3-yl]ethyl]-4-[2-(1-methylcyclopropyl)-2-(2,2,2-trifluoroacetamido)acetyl]-4-azatricyclo[5.2.1.0^{2,6}]dec-8-ene-3-carboxamide]",≥ 10000 nM,,> 10000 nM,100 to 1000 nM,,< 20 nM,< 100 nM,100 to 1000 nM,
"O=C(NC1CC1)C(=O)C(C[C@@H]1CCNC1=O)NC(=O)[C@@H]1[C@@H]2[C@H](CN1C(=O)c1cc3c(Cl)cc(Cl)cc3[nH]1)[C@@H]1C=C[C@H]2C1 (stereo partly drawn) [Compound 46, (1S,3aR,4S,7R,7aS)—N-(4-(cyclopropylamino)-3,4-dioxo-1-((S)-2-oxopyrrolidin-3-yl)butan-2-yl)-2-(4,6-dichloro-1H-indole-2-carbonyl)-2,3,3a,4,7,7a-hexahydro-1H-4,7-methanoisoindole-1-carboxamide]",≥ 10000 nM,,,100 to 1000 nM,,< 20 nM,100 to 1000 nM,100 to 1000 nM,200 to 2000 nM
"CC(C)(C)C(C(=O)N1C[C@H]2[C@@H]([C@H]1C(=O)N[C@H](C#N)C[C@@H]1CCNC1=O)[C@H]1C=C[C@@H]2C1)n1cc(C(F)(F)F)nn1 (stereo partly drawn) [Compound 42, (1S,3aR,4S,7R,7aS)-N-((S)-1-cyano-2-((S)-2-oxopyrrolidin-3-yl)ethyl)-2-(3,3-dimethyl-2-(4-(trifluoromethyl)-1H-1,2,3-triazol-1-yl)butanoyl)-2,3,3a,4,7,7a-hexahydro-1H-4,7-methanoisoindole-1-carboxamide]",≥ 10000 nM,,> 10000 nM,100 to 1000 nM,,20 to 200 nM,100 to 1000 nM,100 to 1000 nM,
"CC(C)(C)[C@H](NC(=O)C(F)(F)F)C(=O)N1C[C@H]2[C@@H]([C@H]1C(=O)N[C@H](C#N)C[C@@H]1CCCNC1=O)[C@H]1C=C[C@@H]2C1 [Example 16, (1S,3aR,4S,7R,7aS)-N-((S)-1-cyano-2-((S)-2-oxopiperidin-3-yl)ethyl)-2-((S)-3,3-dimethyl-2-(2,2,2-trifluoroacetamido)butanoyl)-2,3,3a,4,7,7a-hexahydro-1H-4,7-methanoisoindole-1-carboxamide]",≥ 10000 nM,,> 10000 nM,< 100 nM,,< 20 nM,< 100 nM,< 100 nM,
"CC(C)(C)[C@H](NC(=O)C(F)(F)F)C(=O)N1C[C@H]2[C@@H]([C@H]1C(=O)NC(C#N)Cc1ccc[nH]c1=O)[C@H]1C=C[C@@H]2C1 (single isomer, unassigned) [Compound 57, (1S,3aR,4S,7R,7aS)-N-((S*)-1-cyano-2-(2-oxo-1,2-dihydropyridin-3-yl)ethyl)-2-((S)-3,3-dimethyl-2-(2,2,2-trifluoroacetamido)butanoyl)-2,3,3a,4,7,7a-hexahydro-1H-4,7-methanoisoindole-1-carboxamide]",≥ 10000 nM,,> 10000 nM,100 to 1000 nM,,20 to 200 nM,100 to 1000 nM,100 to 1000 nM,
"Cc1nnc(N[C@H](C(=O)N2C[C@H]3[C@@H]([C@H]2C(=O)N[C@H](C#N)C[C@@H]2CCNC2=O)[C@H]2C=C[C@@H]3C2)C(C)(C)C)o1 [Compound 43, (1S,3aR,4S,7R,7aS)-N-((S)-1-cyano-2-((S)-2-oxopyrrolidin-3-yl)ethyl)-2-((S)-3,3-dimethyl-2-((5-methyl-1,3,4-oxadiazol-2-yl)amino)butanoyl)-2,3,3a,4,7,7a-hexahydro-1H-4,7-methanoisoindole-1-carboxamide]",≥ 10000 nM,,> 10000 nM,100 to 1000 nM,,< 20 nM,100 to 1000 nM,100 to 1000 nM,
"C#CC(C)(C)[C@H](NC(=O)C(F)(F)F)C(=O)N1C[C@@H]2[C@@H]3CC[C@@H](C3)[C@@H]2[C@H]1C(=O)N[C@H](C#N)C[C@@H]1CCNC1=O [Example 13, (1S,2S,3S,6R,7R)—N-[(1S)-1-cyano-2-[(3S)-2-oxopyrrolidin-3-yl]ethyl]-4-[(2S)-3,3-dimethyl-2-(2,2,2-trifluoroacetamido)pent-4-ynoyl]-4-azatricyclo[5.2.1.0^{2,6}]decane-3-carboxamide]",≥ 10000 nM,,> 10000 nM,< 100 nM,,20 to 200 nM,100 to 1000 nM,< 100 nM,
CC(C)(C)[C@H](NC(=O)C(F)(F)F)C(=O)N1C[C@H]2[C@@H]([C@H]1C(=O)N[C@H](C#N)C[C@@H]1CCNC1=O)[C@H]1C=C[C@@H]2CC1 (mixture of isomers) [Compound 59],≥ 10000 nM,,> 10000 nM,< 100 nM,,< 20 nM,< 100 nM,< 100 nM,
"CC(C)(C)[C@H](NC(=O)C(F)(F)Cl)C(=O)N1C[C@H]2[C@@H]([C@H]1C(=O)N[C@H](C#N)C[C@@H]1CCNC1=O)[C@H]1C=C[C@@H]2C1 [Example 39, (1R,2S,3S,6R,7S)-4-[(2S)-2-(2-chloro-2,2-difluoroacetamido)-3,3-dimethylbutanoyl]-N-[(1S)-1-cyano-2-[(3S)-2-oxopyrrolidin-3-yl]ethyl]-4-azatricyclo[5.2.1.0^{2,6}]dec-8-ene-3-carboxamide]",≥ 10000 nM,,> 10000 nM,< 100 nM,,< 20 nM,< 100 nM,< 100 nM,
CC(C)(C)[C@H](NC(=O)C(F)(F)F)C(=O)N1C[C@@H]2[C@@H]3CC[C@@H](C3)[C@@H]2[C@H]1C(=O)N[C@H](C#N)C[C@H]1Cn2nccc2NC1=O (relative stereo) [Compound 17b],≥ 10000 nM,,> 10000 nM,100 to 1000 nM,,< 20 nM,100 to 1000 nM,100 to 1000 nM,
"[2H]C1([2H])C[C@@H](C[C@@H](C#N)NC(=O)[C@@H]2[C@@H]3[C@H](CN2C(=O)[C@@H](NC(=O)C(F)(F)F)C(C)(C)C)[C@@H]2C=C[C@H]3C2)C(=O)N1 [Compound 50, (1S,3aR,4S,7R,7aS)-N-((S)-1-cyano-2-((S)-2-oxopyrrolidin-3-yl-5,5-d2)ethyl)-2-((S)-3,3-dimethyl-2-(2,2,2-trifluoroacetamido)butanoyl)-2,3,3a,4,7,7a-hexahydro-1H-4,7-methanoisoindole-1-carboxamide]",≥ 10000 nM,,> 10000 nM,< 100 nM,,< 20 nM,< 100 nM,< 100 nM,
CC(C)(C)[C@H](OCC1CC1)C(=O)N1C[C@H]2[C@@H]([C@H]1C(=O)N[C@H](C#N)C[C@@H]1CCNC1=O)[C@H]1C=C[C@@H]2C1 [Compound 56],≥ 10000 nM,> 10000 nM,> 10000 nM,1000 to 10000 nM,,200 to 2000 nM,,1000 to 10000 nM,
